Source: US12655125B2 (SIRONAX LTD., priority 2020, dated 2026)
Like-named read-outs stand apart in the source and are kept apart here.

Tested on: HT-29 cells
Experiment: HT29 Cells 0FBS Assay In Vitro (TNF-α/SMAC mimetic/zVAD-FMK induced necroptosis, CellTiter-Glo cell viability)
Format: cell-based
Settings: Homo sapiens, HT-29 cells, FBS free medium, TNF-α (10 ng/ml), SMAC mimetic (6 uM), zVAD-FMK (10 μM), 20 hours, geometric mean EC50
From the text: Protocol for HT29 Cells 0FBS Assay In Vitro
• Cell line: HT-29 (ATCC® HTB-38™) • Culture medium: McCOY's 5 A, Gibco, Cat No. 16600-082 • FBS, Gibco, Cat No. 10099-141C • Trypsin: Gibco, Cat No. 25200-056 • DMSO: Sigma, Cat No. 67-68-5, 1 L • Assay plate: Corning #3903 • Compound dilution plate: Corning #3357 • Inducers: TNFα, GenScript, Cat No. ZO1001-50, • SmacM, Cat. No., HY-15989, MedChemExpress (MCE) • Z_VAD FMK, TargetMol, T6013 • Cell Titer-Glo® Luminescent Cell Viability Assay Kit: Promega, Cat No. G7573 • EnVision: PerkinElmer, 2105-0010 2. Cell Seeding of HT-29 Cells • 1) HT-29 cells were checked every day to make sure they are healthy and growing as expected. They were split sub-culturing when were approximately 80% confluent. • 2) First pre-warm the culture medium of McCOY's 5 A medium (Gibco, Cat No. 16600-082) with 10% FBS (Gibco, Cat No. 10099-141C) in 37° C. water bath for at least 30 min. • 3) Growing cells to desired level of confluency 80% in a T75 flask, aspirate the medium, and wash with warm PBS two times. • 4) Add 2-3 ml fresh warm trypsin (Gibco, Cat No. 25200-056) solution. Transfer the flask to a 37° C. incubator. • 5) After 5 minutes, tap the side of the flask, and examine the flask under a microscope for lifting. If necessary, return the cells to the incubator for an additional 5-10 minutes, with occasional tapping, until lifting is complete. • 6) Quickly neutralize the trypsin reaction by adding 6-9 ml cell culture medium, then transfer the cells to sterile 15 ml conical tubes. Pellet the cells by centrifugation at 300×g for 7 minutes, then decant the supernatant. • 7) Resuspend the cells in fresh cell culture medium. Do cell counting with hemocytometer. • 8) Seed 100 μl of 5,000 cells into each well of the sterile 96-well cell culture plate (Corning 3903) and culture overnight at 37° C. with 5% C02. 3. Compounds Titration and Treatment of HT-29 Cells • 1) All batches of compounds (CPDs) (e.g., compound 1-281) were dissolved in DMSO (Dimethyl sulfoxide) as 20 mM stock solution. • 2) Take 3 ul 20 mM stock solution of CPDs to 27 ul DMSO and mix well, continue the titration ratio of 1:3 (20 ul CPDs+40 ul DMSO), e.g., to give solutions of CPDS at 6.6 mM, 2.2 mM, etc., till the 10 points end. • 3) Take out assay plates with HT-29 cells from incubator, remove all culture medium then wash 1 time with 1×PBS, and change fresh McCOY's 5 A medium of FBS free with a cocktail of TNF-α (10 ng/ml), the SMAC mimetic (6 uM) and zVAD-FMK (10 μM) to stimulate the HT-29 cells to increase pRIPK1 levels and necroptosis. • 4) Add 0.5 μL of the diluted compound to the corresponding 96-well assay plates. • 5) Incubate the assay plates for 20 hours at 37° C. with 5% C02. 4. Performing Cell Viability Detection of HT-29 Cells after Treated with Compounds • 1) The CellTiter-Glo® Luminescent Cell Viability Assay was employed to detect the ATP levels of viable HT-29 cells. • 2) Equilibrate the CellTiter-Glo® buffer and the lyophilized substrate to room temperature prior to use. • 3) Resuspend the CellTiter-Glo® substrate with CellTiter-Glo® buffer, mix by gently vortexing to obtain a homogeneous solution. • 4) Pipette 20 μl the enzyme/substrate mixture by multi-channel pipette into the 96-well assay plates from step 5) under the Compounds titration and treatment stage. • 5) Place the plates on an orbital shaker and mix the contents for 3 minutes to induce cell lysis. • 6) Then allow the plates to incubate at room temperature for 10 minutes to stabilize luminescent signal. • 7) Read and record luminescence signal with EnVision. • 8) The geometric mean EC50 of the compounds were calculated from points response dose with duplicate. In Tables 2 and 4, activity is provided as follows: +++=0.1 nM≤EC50<100 nM; ++=100 nM≤EC50<1000 nM; +=1000 nM≤EC50<10000 nM.

[1] = read-out: Cell activity (EC50) of Compounds 1-116

SMILES | EC50 [1] | EC50 (read-out: Cell activity (EC50) of Compounds 117-281)
Cn1nccc1-c1ccc(F)c(OC2CN(C(=O)N3N=CC[C@H]3c3cc(F)cc(F)c3)C2)n1 (stereo in doubt) [compound 1, (5-(3,5-difluorophenyl)-4,5-dihydro-1H-pyrazol-1-yl)(3-((3-fluoro-6-(1-methyl-1H-pyrazol-5-yl)pyridin-2-yl)oxy)azetidin-1-yl)methanone] | 0.1 to 100 nM | –
Cc1c([S+](C)[O-])nn(C)c1-c1cc(OC2CN(C(=O)N3N=CC[C@H]3c3cc(F)cc(F)c3)C2)c(F)cn1 (stereo in doubt) [compound 178, (5-(3,5-difluorophenyl)-4,5-dihydro-1H-pyrazol-1-yl)(3-((2-(1,4-dimethyl-3-(methylsulfinyl)-1H-pyrazol-5-yl)-5-fluoropyridin-4-yl)oxy)azetidin-1-yl)methanone] | – | 0.1 to 100 nM
Cn1nccc1-c1ncc(F)c(OC2CN(C(=O)N3N=CC[C@H]3c3cc(F)cc(F)c3)C2)n1 [compound 2, (S)-(5-(3,5-difluorophenyl)-4,5-dihydro-1H-pyrazol-1-yl)(3-((5-fluoro-2-(1-methyl-1H-pyrazol-5-yl)pyrimidin-4-yl)oxy)azetidin-1-yl)methanone] | 0.1 to 100 nM | –
Cn1nccc1-c1cc(OC2CN(C(=O)N3N=CC[C@H]3c3cc(F)cc(F)c3)C2)c(F)cn1 [compound 3, (S)-(5-(3,5-difluorophenyl)-4,5-dihydro-1H-pyrazol-1-yl)(3-((5-fluoro-2-(1-methyl-1H-pyrazol-5-yl)pyridin-4-yl)oxy)azetidin-1-yl)methanone] | 0.1 to 100 nM | –
CCn1nccc1-c1cc(OC2CN(C(=O)N3N=CC[C@H]3c3cc(F)cc(F)c3)C2)c(F)cn1 [compound 4, (S)-(5-(3,5-difluorophenyl)-4,5-dihydro-1H-pyrazol-1-yl)(3-((2-(1-ethyl-1H-pyrazol-5-yl)-5-fluoropyridin-4-yl)oxy)azetidin-1-yl)methanone] | 0.1 to 100 nM | –
Cn1ccnc1-c1ccc(F)c(OC2CN(C(=O)N3N=CC[C@H]3c3cc(F)cc(F)c3)C2)n1 [compound 5, (S)-(5-(3,5-difluorophenyl)-4,5-dihydro-1H-pyrazol-1-yl)(3-((3-fluoro-6-(1-methyl-1H-imidazol-2-yl)pyridin-2-yl)oxy)azetidin-1-yl)methanone] | 0.1 to 100 nM | –
Cn1cncc1-c1ccc(F)c(OC2CN(C(=O)N3N=CC[C@H]3c3cc(F)cc(F)c3)C2)n1 [compound 6, (S)-(5-(3,5-difluorophenyl)-4,5-dihydro-1H-pyrazol-1-yl)(3-((3-fluoro-6-(1-methyl-1H-imidazol-5-yl)pyridin-2-yl)oxy)azetidin-1-yl)methanone] | 0.1 to 100 nM | –
Cn1cncc1-c1cc(OC2CN(C(=O)N3N=CC[C@H]3c3cc(F)cc(F)c3)C2)c(F)cn1 [compound 7, (S)-(5-(3,5-difluorophenyl)-4,5-dihydro-1H-pyrazol-1-yl)(3-((5-fluoro-2-(1-methyl-1H-imidazol-5-yl)pyridin-4-yl)oxy)azetidin-1-yl)methanone] | 0.1 to 100 nM | –
Cn1cncc1-c1ncc(F)c(OC2CN(C(=O)N3N=CC[C@H]3c3cc(F)cc(F)c3)C2)n1 [compound 8, (S)-(5-(3,5-difluorophenyl)-4,5-dihydro-1H-pyrazol-1-yl)(3-((5-fluoro-2-(1-methyl-1H-imidazol-5-yl)pyrimidin-4-yl)oxy)azetidin-1-yl)methanone] | 0.1 to 100 nM | –
Cc1ncsc1-c1ncc(F)c(OC2CN(C(=O)N3N=CC[C@H]3c3cc(F)cc(F)c3)C2)n1 [compound 9, (S)-(5-(3,5-difluorophenyl)-4,5-dihydro-1H-pyrazol-1-yl)(3-((5-fluoro-2-(4-methylthiazol-5-yl)pyrimidin-4-yl)oxy)azetidin-1-yl)methanone] | 0.1 to 100 nM | –
Cc1ncsc1-c1ccc(F)c(OC2CN(C(=O)N3N=CC[C@H]3c3cc(F)cc(F)c3)C2)n1 [compound 10, (S)-(5-(3,5-difluorophenyl)-4,5-dihydro-1H-pyrazol-1-yl)(3-((3-fluoro-6-(4-methylthiazol-5-yl)pyridin-2-yl)oxy)azetidin-1-yl)methanone] | 0.1 to 100 nM | –
Cc1ncsc1-c1cc(OC2CN(C(=O)N3N=CC[C@H]3c3cc(F)cc(F)c3)C2)c(F)cn1 [compound 11, (S)-(5-(3,5-difluorophenyl)-4,5-dihydro-1H-pyrazol-1-yl)(3-((5-fluoro-2-(4-methylthiazol-5-yl)pyridin-4-yl)oxy)azetidin-1-yl)methanone] | 0.1 to 100 nM | –
Cc1scnc1-c1ncc(F)c(OC2CN(C(=O)N3N=CC[C@H]3c3cc(F)cc(F)c3)C2)n1 [compound 12, (S)-(5-(3,5-difluorophenyl)-4,5-dihydro-1H-pyrazol-1-yl)(3-((5-fluoro-2-(5-methylthiazol-4-yl)pyrimidin-4-yl)oxy)azetidin-1-yl)methanone] | 0.1 to 100 nM | –
Cc1scnc1-c1ccc(F)c(OC2CN(C(=O)N3N=CC[C@H]3c3cc(F)cc(F)c3)C2)n1 [compound 13, (S)-(5-(3,5-difluorophenyl)-4,5-dihydro-1H-pyrazol-1-yl)(3-((3-fluoro-6-(5-methylthiazol-4-yl)pyridin-2-yl)oxy)azetidin-1-yl)methanone] | 0.1 to 100 nM | –
Cc1scnc1-c1cc(OC2CN(C(=O)N3N=CC[C@H]3c3cc(F)cc(F)c3)C2)c(F)cn1 [compound 14, (S)-(5-(3,5-difluorophenyl)-4,5-dihydro-1H-pyrazol-1-yl)(3-((5-fluoro-2-(5-methylthiazol-4-yl)pyridin-4-yl)oxy)azetidin-1-yl)methanone] | 0.1 to 100 nM | –
Cc1nscc1-c1ncc(F)c(OC2CN(C(=O)N3N=CC[C@H]3c3cc(F)cc(F)c3)C2)n1 [compound 15, (S)-(5-(3,5-difluorophenyl)-4,5-dihydro-1H-pyrazol-1-yl)(3-((5-fluoro-2-(3-methylisothiazol-4-yl)pyrimidin-4-yl)oxy)azetidin-1-yl)methanone] | 0.1 to 100 nM | –
Cc1nscc1-c1ccc(F)c(OC2CN(C(=O)N3N=CC[C@H]3c3cc(F)cc(F)c3)C2)n1 [compound 16, (S)-(5-(3,5-difluorophenyl)-4,5-dihydro-1H-pyrazol-1-yl)(3-((3-fluoro-6-(3-methylisothiazol-4-yl)pyridin-2-yl)oxy)azetidin-1-yl)methanone] | 0.1 to 100 nM | –
Cc1nscc1-c1cc(OC2CN(C(=O)N3N=CC[C@H]3c3cc(F)cc(F)c3)C2)c(F)cn1 [compound 17, (S)-(5-(3,5-difluorophenyl)-4,5-dihydro-1H-pyrazol-1-yl)(3-((5-fluoro-2-(3-methylisothiazol-4-yl)pyridin-4-yl)oxy)azetidin-1-yl)methanone] | 0.1 to 100 nM | –
Cc1csnc1-c1ncc(F)c(OC2CN(C(=O)N3N=CC[C@H]3c3cc(F)cc(F)c3)C2)n1 [compound 18, (S)-(5-(3,5-difluorophenyl)-4,5-dihydro-1H-pyrazol-1-yl)(3-((5-fluoro-2-(4-methylisothiazol-3-yl)pyrimidin-4-yl)oxy)azetidin-1-yl)methanone] | 0.1 to 100 nM | –
